In PubChem BioAssay AID504313 (Emory University Molecular Libraries Screening Center, 2011):
The source made the active and inactive calls. The rule behind the calls is not given here.

Target: X-box-binding protein 1 (Homo sapiens) (UniProt P17861)
Experiment: XBP1 reporter suppression in cells – counter-screen, dose response (AID 504313);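 note: CHO cells carrying an XBP1 reporter stimulated with tunicamycin; potency is for inhibition of the tunicamycin-induced reporter signal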
Conditions: XBP1 reporter cell assay, percent of control

SMILES | IC50
CCN(CCO)c1ncnc2c1sc1nc(C(C)C)c3c(c12)CC(C)(C)OC3 | > 10 µM (inactive)
S=C(Nc1ccccc1)Nc1ccc(OCc2ccc(Cl)cc2Cl)cc1 | 0.19 µM
Cc1ccc(C(=O)N/C(=C\c2ccc(Br)cc2)c2nc(=S)[nH][nH]2)cc1 | > 10 µM (inactive)
OC(CNCCc1ccc(C(F)(F)F)cc1)COc1cccc2ccccc12 (stereo not drawn) | < 0.16 µM (inactive)
C[C@H](NC(=O)c1[nH]cnc1C(=O)Nc1ccc(CNC(=O)OC(C)(C)C)cc1)C(=O)OC(C)(C)C | inactive
Nc1nnnn1/N=C/C(Br)=C/c1ccccc1 | > 10 µM (inactive)
Cc1nn(Cc2c(Cl)cccc2Cl)c(C)c1NC(=O)c1cc(C(C)C)on1 | > 10 µM (inactive)
Cc1cc(/C=N/n2cnnc2)c(C)n1-c1ccc(OCc2ccc(Cl)cc2Cl)cc1 | 0.35 µM
O=c1cc(-c2c(F)c(F)c(F)c(F)c2F)oc2c(F)c(F)c(F)c(F)c12 | 4.69 µM
Cc1cccc(C)c1N1CCN(c2ccc3nnc(C(F)(F)F)n3n2)CC1 | > 10 µM (inactive)
O=C1C(Nc2ccc(O)cc2)=C/C(=N/S(=O)(=O)c2cccs2)c2ccccc21 | 1.21 µM
CC1CCc2cc(F)ccc2N1C(=O)CSc1nnc2c(n1)[nH]c1ccc(F)cc12 (stereo not drawn) | > 10 µM (inactive)
CC(C)CCn1c(=O)c(C(=O)N/N=C/c2cccc(F)c2)c(O)c2ccccc21 | 3.49 µM
Cc1cc(C2=NNC(=NC3CC3)SC2)c(C)n1-c1ccccc1 | < 0.16 µM (inactive)
CC(C)(C)OC(=O)NCCc1nnc(S(=O)(=O)Cc2ccc(Cl)cc2Cl)o1 | 4.44 µM
COc1ccccc1NC(=O)c1c(Nc2ccccc2C)sc(C(=O)Nc2cccc(Cl)c2)c1N | > 10 µM (inactive)
Oc1ccc(/C=N/N2CCN(C3c4ccccc4-c4ccccc43)CC2)c(O)c1 | > 10 µM (inactive)
Cc1ccc(NC2=C/C(=N\S(=O)(=O)c3cccs3)c3ccccc3C2=O)c(C)c1 | 0.55 µM
CC1=C/C(=N\OS(=O)(=O)c2ccccc2)C(C)=CC1=O | 2.69 µM
Cc1ccc(COc2ccc(Br)cc2/C=N/O)cc1 | > 10 µM (inactive)

The next lines start with the values.

IC50 | SMILES
inactive | CCCCCCN1C=CC(=C2C(=O)c3ccccc3C2=O)C=C1
inactive | COc1cc(/C=N/O)cc(Br)c1OCc1cccc(Cl)c1
inactive | CC(C)(C)c1ccc(C2CC2C(=O)N/N=C\c2ccc[nH]2)cc1 (stereo not drawn)
2.9 µM | CC1=C/C(=N\OS(=O)(=O)c2ccccc2)C=CC1=O
> 10 µM (inactive) | CCc1c(C)sc(NC(=O)CSc2nc3c(c(C(F)(F)F)n2)CCc2ccccc2-3)c1C#N
inactive | O=C(CCl)Nc1cc(-c2ccccc2)nn1-c1ccccc1
0.39 µM | Nc1ccc2oc(-c3cc(Br)ccc3Cl)nc2c1
> 10 µM (inactive) | COc1cc(OC)cc(-c2nc3ccccc3c(=O)n2OC(=O)c2ccc(Br)cc2)c1
4.83 µM | N#C/C(=C\c1ccc([N+](=O)[O-])o1)c1nc2ccccc2[nH]1
inactive | CC(C)=NOc1cc(NC(=O)CCl)cc([N+](=O)[O-])c1
> 10 µM (inactive) | Cc1nc(SCC(=O)Nc2cc(C)on2)c2c3c(sc2n1)CCCC3
inactive | O=C1c2ccccc2C(=O)c2c1oc(C(F)(F)F)c2C(=O)c1ccccc1
> 10 µM (inactive) | CN1CC(c2ccccc2)C2(SC(=S)N(Cc3ccco3)C2=O)C12C(=O)Nc1ccccc12 (stereo not drawn)
> 10 µM (inactive) | Cn1c(=O)[nH]c(=O)c2[nH]c(N(Cc3ccccc3)Cc3ccccc3)nc21
> 10 µM (inactive) | Cc1ccc(C)c(NC(=S)NC(NC(=O)/C=C/c2ccccc2)C(Cl)(Cl)Cl)c1 (stereo not drawn)
0.18 µM | COc1ccc(/C=C2/SC(=S)N(CCCC(=O)Nc3ccc(O)cc3)C2=O)cc1
inactive | C=C(C)COc1ccc(-c2n[nH]c(C)c2Oc2ccccc2OC)c(O)c1
> 10 µM (inactive) | Cc1cccc(/C=C/C(=O)c2cc(Br)ccc(=O)c2O)c1
> 10 µM (inactive) | COc1ccc(Cn2c(SCc3ccccc3C)nc3cc(OC)c(OC)cc3c2=N)cc1
> 10 µM (inactive) | COC(=O)c1c(NC(=O)Nc2ccc(Cl)cc2)sc(C)c1C
1.41 µM | CCOC(=O)c1c(C)[nH]c2c1-c1ccccc1C(=O)C2=O
> 10 µM (inactive) | CCC(CC)c1nnc(NC(=O)c2c(C)nn(Cc3ccccc3Cl)c2C)s1
5.02 µM | CC(C)c1ccc(-c2cc(C(=O)N3N=C(C(F)F)CC3(O)C(F)F)c3ccccc3n2)cc1 (stereo not drawn)
< 0.16 µM (inactive) | C=CCn1c(C)cc(C2=NNC(=NCC)SC2)c1C
> 10 µM (inactive) | Cc1nc(NC(=O)CSc2nc3cccnc3n2Cc2ccccc2)sc1C
inactive | OC(COCC(F)(F)C(F)(F)C(F)(F)C(F)F)Cn1c2ccccc2c2ccccc21 (stereo not drawn)
> 10 µM (inactive) | NC(=O)CC(NC(=O)Cc1cccc2ccccc12)c1ccc(NCc2cc(F)ccc2F)c([N+](=O)[O-])c1 (stereo not drawn)
inactive | CNC(=O)c1nnsc1S(=O)(=O)c1ccc(Cl)cc1
